Source: US7384949B2, “Thieno(3,2-d)pyrimidines and furano(3,2-d)pyrimidines and their use as purinergic receptor antagonists” (Vernalis Research Limited, priority 2001, dated 2008)

What was measured:
[1] = target: human adenosine A2A receptors (Homo sapiens, UniProt P29274); assay: in vitro binding to human adenosine A2A receptors, displacement of [3H]-CGS 21680; conditions: hA2A receptors, radioligand [3H]-CGS 21680
Excerpt: Adenosine Receptor Binding Binding Affinities at hA2A Receptors

catalepsy = conditions: cited from earlier work
Parkinsonian patients = conditions: cited from earlier work

human adenosine A2A receptors, sequence (P29274 whole entry): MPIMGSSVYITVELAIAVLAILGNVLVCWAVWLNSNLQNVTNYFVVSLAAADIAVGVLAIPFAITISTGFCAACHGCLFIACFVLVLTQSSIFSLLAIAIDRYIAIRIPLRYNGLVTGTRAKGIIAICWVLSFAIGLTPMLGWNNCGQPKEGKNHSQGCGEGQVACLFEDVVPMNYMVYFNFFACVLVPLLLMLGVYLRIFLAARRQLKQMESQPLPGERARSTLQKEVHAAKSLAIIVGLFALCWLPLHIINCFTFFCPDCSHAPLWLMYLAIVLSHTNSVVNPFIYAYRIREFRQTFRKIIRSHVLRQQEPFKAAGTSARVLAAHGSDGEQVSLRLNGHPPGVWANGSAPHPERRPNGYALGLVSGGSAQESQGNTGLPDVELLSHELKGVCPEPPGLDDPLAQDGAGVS

| SMILES | Ki [1] [nM] | also measured |
| --- | --- | --- |
| OCCNc1nc(-c2ccco2)c2scc(Br)c2n1 [Example 15, 7-bromo-4-(2-furyl)-N-(2-hydroxyethyl)thieno[3,2-d]pyrimidine-2-amine] | 11 | melting point: 173.4 to 174.4 °C |
| C=CCNc1nc(-c2ccco2)c2sccc2n1 [Example 40, N-allyl-4-(2-furyl)thieno[3,2-d]pyrimidine-2-amine] | 19 | melting point: 101 to 102 °C |
| CN(C)c1nc(-c2nccs2)c2sccc2n1 [Example 65, N,N-dimethyl-4-(2-thiazolyl)thieno[3,2-d]pyrimidine-2-amine] | 2 |  |
| CC(C)c1nc(-c2ccccn2)c2sccc2n1 [Example 70, 2-isopropyl-4-(2-pyridyl)thieno[3,2-d]pyrimidine] | 4 |  |
| COCCNc1nc(-c2ccco2)c2scc(Br)c2n1 [Example 71] | 8 | melting point: 65 to 65.4 °C |
| Nc1nc(-c2ccco2)c2sccc2n1 [Example 79, 4-(2-furyl)thieno[3,2-d]pyrimidine-2-amine] | 14 |  |
| CCCn1c(=O)c2c(nc(/C=C/c3ccc(OC)c(OC)c3)n2C)n(CCC)c1=O [KF 17837, (E)-8-(3,4-dimethoxystyryl)-1,3-dipropyl-7-methylxanthine] |  | anticataleptic effects of a subthreshold dose of L-DOPA plus benserazide (catalepsy; in vivo): potentiated; catalepsy induced by haloperidol and reserpine (catalepsy; in vivo): reduced; cataleptic responses induced by intracerebroventricular CGS 21680 (catalepsy; oral administration): significantly ameliorated |
| Cn1c(=O)c2[nH]cnc2n(C)c1=O [theophylline, 1,3-dimethylxanthine] |  | mean objective disability scores (Parkinsonian patients; 15 Parkinsonian patients, up to 12 weeks, 150 mg/day): significant improvements; patients reporting moderate or marked subjective improvement (Parkinsonian patients; of 15 Parkinsonian patients, up to 12 weeks, 150 mg/day): 11; serum theophylline levels (Parkinsonian patients; slow release oral preparation 150 mg/day, after one week): 4.44 mg/L |

More lines, main results first:

| Ki [1] [nM] | SMILES | also measured |
| --- | --- | --- |
| 1 | CCc1nc(-c2nc(C)cs2)c2sccc2n1 [Example 80, 2-ethyl-4-(4-methyl-2-thiazolyl)thieno[3,2-d]pyrimidine] |  |
| 2 | CCc1nc(-c2nccs2)c2sccc2n1 [Example 82, 2-ethyl-4-(2-thiazolyl)thieno[3,2-d]pyrimidine] |  |
| 20 | O=C(NCCNc1nc(-c2ccco2)c2sccc2n1)OCc1ccccc1 [Example 89, benzyl (2-(4-(2-furyl)thieno[3,2-d]pyrimidine-2-ylamino)ethyl)carbamate] |  |
| 5 | Cc1cnc(-c2nc(N(C)C)nc3ccsc23)s1 [Example 104, N,N-dimethyl-4-(5-methyl-2-thiazolyl)thieno[3,2-d]pyrimidine-2-amine] |  |
| 6 | Cc1nc(-c2nc(N(C)C)nc3ccsc23)sc1C [Example 105, N,N-dimethyl-4-(4,5-dimethyl-2-thiazolyl)thieno[3,2-d]pyrimidine-2-amine] |  |
| 35 | Nc1nc(-c2nccs2)c2sccc2n1 [Example 110, 4-(2-thiazolyl)thieno[3,2-d]pyrimidine-2-amine] |  |
| 1 | CC(C)c1nc(-c2nccs2)c2sccc2n1 [Example 113, 2-isopropyl-4-(2-thiazolyl)thieno[3,2-d]pyrimidine] |  |
| 3 | CC(C)(C)c1nc(-c2nccs2)c2sccc2n1 [Example 139, 2-tert-butyl-4-(2-thiazolyl)thieno[3,2-d]pyrimidine] |  |
| 6 | ClCCc1nc(-c2nccs2)c2sccc2n1 [Example 154, 2-(2-chloroethyl)-4-(2-thiazolyl)thieno[3,2-d]pyrimidine] |  |
